Assay results reported in patent publication US8193208B2 (Purdue Pharma L.P., priority 2005, dated 2012).
Values joined by “and” are separate entries in the source; they are usually repeats but may differ in a detail not shown here. Identical values can stand only once.

Target: N-type calcium channel (NTCC) (Homo sapiens, UniProt Q00975)
Assay: FLIPR calcium mobilization assay for N-type calcium channel (differentiated IMR32 cells)
Format: cell-based
Parameters: endogenous in cells; host or cells: IMR32 cells (ATCC), differentiated 8 days with dibutyryl cAMP and bromodeoxyuridine
Details: calcium mobilization in vitro assay; N-type calcium channel block
Procedure: Cell maintenance and differentiation. Unless noted otherwise, cell culture reagents were purchased from Mediatech of Herndon, Md. IMR32 cells (American Type Culture Collection, ATCC, Manassas, Va.) were routinely cultured in growth medium consisting of minimum essential medium containing 10% fetal bovine serum (FBS, Hyclone, Logan, Utah), 100 U/mL penicillin, 100 μg/mL streptomycin, 2 mM L-glutamine, 1 mM sodium pyruvate, and 1×MEM non-essential amino acids. 80-90% confluent flasks of cells were differentiated using the following differentiation medium: Growth medium plus 1 mM dibutyryl cyclic AMP (Sigma, St. Louis, Mo.), and 2.5 μM bromodeoxyuridine (Sigma). Cells were differentiated for 8 days by replacing differentiation medium every 2-3 days.
FLIPR Calcium Mobilization Assay for N-type Calcium Channel. One day prior to performing this assay, differentiated IMR32 cells were treated with 1×
CellStripper, and seeded on poly-D-lysine-coated 96-well clear-bottom black plates (Becton Dickinson, Franklin Lakes, N.J.) at 200,000 cells/well. On the day of the assay, the cell plates were washed with IMR32 buffer (127 mM NaCl, 1 mM KCl, 2 mM MgCl2, 700 μM NaH2PO4, 5 mM CaCl2, 5 mM NaHCO3, 8 mM HEPES, 10 mM glucose, pH 7.4), then pre-stimulated with KCl and loaded as follows: 0.05 mL of IMR32 buffer, 0.05 mL of each compound tested diluted in IMR32 buffer containing 20 μM nitrendipine (Sigma), and 0.1 mL KCl dissolved in IMR32 buffer, plus Fluo-4 were added (3 μM final concentration, Molecular Probes, Eugene, Oreg.). Final test compound concentrations ranged from about 846 pM to about 17 μM, final nitrendipine concentration was 5 μM, and final KCl concentration was 90 mM. After 1 hour, the cells were washed twice with 0.05 mL of each compound tested in nitrendipine-containing IMR32 buffer (no KCl or Fluo-4), and then replaced with 0.1 mL of each compound tested in nitrendipine-containing IMR32 buffer. Plates were then transferred to a Fluorimetric Imaging Plate Reader (FLIPR^96, Molecular Devices, Inc., Sunnyvale, Calif.) for assay. The FLIPR measured basal Fluo-4 fluorescence for 315 seconds (i.e., 5 minutes and 15 seconds), then added 0.1 mL KCl agonist dissolved in IMR32 buffer and measured fluorescence for another 45 seconds. Final test compound concentrations on the cells after FLIPR read ranged from about 846 pM to about 17 μM, final nitrendipine concentration was 5 μM, and final KCl concentration was 90 mM. Data were collected over the entire time course and analyzed using Excel, Graph Pad Prism (version 3.02, Graph Pad, San Diego, Calif.), or an in-house non-linear regression analysis software.

Chain of N-type calcium channel (NTCC) (Q00975 whole entry): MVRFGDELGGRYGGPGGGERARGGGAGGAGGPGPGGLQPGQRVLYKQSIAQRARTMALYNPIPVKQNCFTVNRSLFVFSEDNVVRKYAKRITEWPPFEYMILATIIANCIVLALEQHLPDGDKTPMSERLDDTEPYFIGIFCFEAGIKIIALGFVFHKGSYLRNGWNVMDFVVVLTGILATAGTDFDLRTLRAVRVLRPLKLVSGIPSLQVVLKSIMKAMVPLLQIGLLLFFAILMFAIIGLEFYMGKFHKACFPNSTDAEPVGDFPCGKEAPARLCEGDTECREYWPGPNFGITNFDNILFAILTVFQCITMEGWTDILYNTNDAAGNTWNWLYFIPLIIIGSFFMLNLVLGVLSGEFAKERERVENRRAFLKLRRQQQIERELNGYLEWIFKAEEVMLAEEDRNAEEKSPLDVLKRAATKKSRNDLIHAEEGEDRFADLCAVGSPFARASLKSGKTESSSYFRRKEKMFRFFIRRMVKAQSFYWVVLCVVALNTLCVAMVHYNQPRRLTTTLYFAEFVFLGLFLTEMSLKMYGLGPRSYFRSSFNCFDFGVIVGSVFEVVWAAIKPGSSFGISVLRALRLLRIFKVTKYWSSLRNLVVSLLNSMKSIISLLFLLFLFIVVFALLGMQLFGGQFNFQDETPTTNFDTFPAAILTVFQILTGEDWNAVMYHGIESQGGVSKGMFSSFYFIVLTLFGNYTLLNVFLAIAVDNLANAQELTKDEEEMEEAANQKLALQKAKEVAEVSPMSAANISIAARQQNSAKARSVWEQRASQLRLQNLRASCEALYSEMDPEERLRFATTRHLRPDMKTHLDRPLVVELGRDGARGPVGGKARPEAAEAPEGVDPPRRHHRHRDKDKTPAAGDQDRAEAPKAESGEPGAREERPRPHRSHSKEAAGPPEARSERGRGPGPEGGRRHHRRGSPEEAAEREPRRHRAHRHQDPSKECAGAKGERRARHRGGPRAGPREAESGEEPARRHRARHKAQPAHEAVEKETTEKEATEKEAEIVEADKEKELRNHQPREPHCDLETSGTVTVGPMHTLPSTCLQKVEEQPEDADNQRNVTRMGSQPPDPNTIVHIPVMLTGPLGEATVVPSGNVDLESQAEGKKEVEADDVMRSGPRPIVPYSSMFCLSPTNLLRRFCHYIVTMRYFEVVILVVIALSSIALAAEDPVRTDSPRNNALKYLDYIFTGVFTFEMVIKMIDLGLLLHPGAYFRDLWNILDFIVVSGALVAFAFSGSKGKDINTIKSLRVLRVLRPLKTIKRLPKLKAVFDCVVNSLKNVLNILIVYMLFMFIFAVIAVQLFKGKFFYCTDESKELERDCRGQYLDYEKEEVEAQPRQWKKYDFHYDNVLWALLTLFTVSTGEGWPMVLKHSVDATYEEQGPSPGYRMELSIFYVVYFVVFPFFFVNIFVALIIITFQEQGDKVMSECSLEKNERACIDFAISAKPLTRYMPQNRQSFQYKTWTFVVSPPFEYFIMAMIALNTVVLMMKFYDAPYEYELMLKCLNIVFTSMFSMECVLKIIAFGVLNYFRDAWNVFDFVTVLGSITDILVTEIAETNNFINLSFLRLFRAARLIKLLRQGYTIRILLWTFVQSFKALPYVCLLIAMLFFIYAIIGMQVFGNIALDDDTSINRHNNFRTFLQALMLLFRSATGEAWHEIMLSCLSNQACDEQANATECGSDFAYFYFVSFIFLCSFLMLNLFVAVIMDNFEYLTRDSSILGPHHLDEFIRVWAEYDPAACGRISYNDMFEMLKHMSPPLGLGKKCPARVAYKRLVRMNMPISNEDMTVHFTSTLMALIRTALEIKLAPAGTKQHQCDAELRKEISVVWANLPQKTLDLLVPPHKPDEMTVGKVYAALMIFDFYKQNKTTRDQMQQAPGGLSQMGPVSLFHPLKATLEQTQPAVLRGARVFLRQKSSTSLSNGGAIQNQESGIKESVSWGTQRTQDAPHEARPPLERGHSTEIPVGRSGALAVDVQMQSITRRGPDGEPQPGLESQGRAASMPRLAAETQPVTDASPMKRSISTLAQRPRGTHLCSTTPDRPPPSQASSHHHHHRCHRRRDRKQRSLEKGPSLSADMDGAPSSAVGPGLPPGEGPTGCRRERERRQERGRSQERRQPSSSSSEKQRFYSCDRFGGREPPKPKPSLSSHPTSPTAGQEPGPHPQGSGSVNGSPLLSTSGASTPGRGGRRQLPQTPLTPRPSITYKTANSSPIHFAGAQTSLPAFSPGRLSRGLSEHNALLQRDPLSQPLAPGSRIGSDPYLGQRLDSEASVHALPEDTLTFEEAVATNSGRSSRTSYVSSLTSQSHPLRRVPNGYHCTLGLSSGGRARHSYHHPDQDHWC
Chain of N-type calcium channel (NTCC) (P54289 25-956 partner limits assumed): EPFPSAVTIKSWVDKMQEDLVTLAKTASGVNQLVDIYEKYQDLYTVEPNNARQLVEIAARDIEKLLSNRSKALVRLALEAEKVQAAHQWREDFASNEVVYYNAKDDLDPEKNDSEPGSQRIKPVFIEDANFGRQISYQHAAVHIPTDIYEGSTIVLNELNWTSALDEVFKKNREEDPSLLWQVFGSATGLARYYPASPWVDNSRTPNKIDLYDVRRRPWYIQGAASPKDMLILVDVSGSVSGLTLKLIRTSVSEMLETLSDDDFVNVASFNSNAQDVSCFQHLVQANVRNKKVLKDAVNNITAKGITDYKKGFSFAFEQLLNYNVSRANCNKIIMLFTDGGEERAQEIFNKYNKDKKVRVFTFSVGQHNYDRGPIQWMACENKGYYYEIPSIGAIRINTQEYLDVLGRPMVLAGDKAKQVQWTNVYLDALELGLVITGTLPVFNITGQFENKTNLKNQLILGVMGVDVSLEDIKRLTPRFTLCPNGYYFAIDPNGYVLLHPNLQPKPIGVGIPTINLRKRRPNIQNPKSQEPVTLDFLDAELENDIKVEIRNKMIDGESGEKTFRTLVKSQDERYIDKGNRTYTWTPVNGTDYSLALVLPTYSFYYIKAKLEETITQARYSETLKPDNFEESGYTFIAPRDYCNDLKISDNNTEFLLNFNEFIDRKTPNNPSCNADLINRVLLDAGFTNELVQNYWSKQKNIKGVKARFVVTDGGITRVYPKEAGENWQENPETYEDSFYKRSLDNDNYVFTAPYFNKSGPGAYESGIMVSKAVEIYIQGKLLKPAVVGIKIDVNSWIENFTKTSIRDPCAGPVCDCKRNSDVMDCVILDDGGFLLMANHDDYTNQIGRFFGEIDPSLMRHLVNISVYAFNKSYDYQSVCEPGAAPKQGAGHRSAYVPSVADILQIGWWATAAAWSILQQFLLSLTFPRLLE
Chain of N-type calcium channel (NTCC) (P54289 957-1103 partner limits assumed): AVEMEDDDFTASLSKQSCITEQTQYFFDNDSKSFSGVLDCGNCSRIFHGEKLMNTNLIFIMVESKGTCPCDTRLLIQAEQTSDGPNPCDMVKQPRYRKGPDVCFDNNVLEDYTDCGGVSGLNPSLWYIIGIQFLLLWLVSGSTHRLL
Chain of N-type calcium channel (NTCC) (Q02641 whole entry partner): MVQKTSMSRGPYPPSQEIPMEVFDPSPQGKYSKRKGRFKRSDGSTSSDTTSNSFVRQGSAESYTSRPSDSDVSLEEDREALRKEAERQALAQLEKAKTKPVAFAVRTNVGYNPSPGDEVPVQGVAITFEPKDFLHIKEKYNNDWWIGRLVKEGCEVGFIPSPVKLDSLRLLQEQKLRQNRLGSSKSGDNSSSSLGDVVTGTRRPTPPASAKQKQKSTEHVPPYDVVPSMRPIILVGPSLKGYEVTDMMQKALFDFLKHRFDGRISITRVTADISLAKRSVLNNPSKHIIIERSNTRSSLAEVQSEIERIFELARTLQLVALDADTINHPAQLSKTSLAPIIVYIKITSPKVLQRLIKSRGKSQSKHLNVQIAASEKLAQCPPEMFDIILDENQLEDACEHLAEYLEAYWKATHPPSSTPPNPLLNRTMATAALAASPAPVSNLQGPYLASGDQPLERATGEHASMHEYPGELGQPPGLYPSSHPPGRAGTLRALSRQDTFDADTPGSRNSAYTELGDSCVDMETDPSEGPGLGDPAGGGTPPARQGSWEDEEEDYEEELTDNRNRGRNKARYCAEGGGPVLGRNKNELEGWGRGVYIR

| Structure (SMILES) | IC50 |
| --- | --- |
| COc1ccc(C(=O)N2CCC3(CC2)OC(=O)c2ccccc23)cc1C(F)(F)F [1,3-dihydro-1′-(4-methoxy-3-trifluoromethylbenzoyl)-spiro[isobenzofuran-1,4′-piperidine]-3-one] | 6.94 µM and 10 to 20 µM |
| O=C(c1cc2ccccc2s1)N1CCC2(C=Cc3ncccc32)CC1 [1-(benzo[b]thiophen-2-ylcarbonyl)-spiro[piperidine-4,5′-cyclopenta[b]pyridine]] | 10 to 20 µM |
| O=C1OC2(CCN(CC(=O)N(c3ccc(F)cc3)c3ccc(F)cc3)CC2)c2ccccc21 [Compound 71, 1,3-Dihydro-1′-[N,N,-bis(4-fluorophenyl)aminocarbonylmethyl]-spiro[isobenzofuran-1,4′-piperidine]-3-one] | 4.89 µM |
| COc1ccc(C(=O)N2CCC3(CC2)OC(=O)c2ccccc23)cn1 [1,3-dihydro-1′-(6-methoxypyridin-3-ylcarbonyl)-spiro[isobenzofuran-1,4′-piperidine]-3-one] | 10 to 20 µM |
| O=C(CCC(=O)N1CCC2(CC1)OC(=O)c1ccccc12)c1ccc(F)cc1 [1,3-dihydro-1′-[4-(4-fluorophenyl)-4-oxobutanoyl]-spiro[isobenzofuran-1,4′-piperidine]-3-one] | 10 to 20 µM |
| COc1ccc(CN(C)C(CC(C)C)C(=O)N2CCC3(CC2)OC(=O)c2ccccc23)cc1 (stereo not shown) [1,3-dihydro-1′-{4-methyl-2-[N-methyl-N-(4-methoxybenzyl)amino]-pentanoyl}-spiro[isobenzofuran-1,4′-piperidine]-3-one] | 4.13 µM |
| CC(C)CC(C(=O)N1CCC2(CC1)OC(=O)c1ccccc12)N(C)C(=O)OC(C)(C)C (stereo not shown) [1,3-dihydro-1′-[4-methyl-2-(N-methyl-N-tert-butoxycarbonylamino)pentanoyl]-spiro[isobenzofuran-1,4′-piperidine]-3-one] | 10.5 µM |
| O=C1OC2(CCN(CCC(=O)N(c3ccc(F)cc3)c3ccc(F)cc3)CC2)c2ccccc21 [1,3-dihydro-1′-{2-[N,N-bis(4-fluorophenyl)aminocarbonyl]ethyl}-spiro[isobenzofuran-1,4′-piperidine]-3-one] | 1.64 µM |
| O=C(CC=C(c1ccc(F)cc1)c1ccc(F)cc1)N1CCC2(C=Cc3ccccc32)CC1 [Compound 33, 1-[4,4-bis(4-fluorophenyl)but-3-enoyl]-spiro[piperidine-4,1′-indene]] | 5.59 µM |
| O=C(CC(c1ccccc1)c1ccccc1)N1CCC2(C=Cc3ncccc32)CC1 [1-(3,3-diphenylpropanoyl)-spiro[piperidine-4,5′-cyclopenta[b]pyridine]] | 3.52 µM |
| O=C1OC2(CCN(C(=O)CC(c3ccccc3)c3ccccc3)CC2)c2ccccc21 [1,3-dihydro-1′-(3,3-diphenylpropanoyl)-spiro[isobenzofuran-1,4′-piperidine]-3-one] | 2.66 µM |
| O=C1OC2(CCN(C(=O)c3ccc(OCC(F)(F)F)nc3)CC2)c2ccccc21 [1,3-dihydro-1′-[6-(2,2,2-trifluoroethoxy)pyridin-3-ylcarbonyl]-spiro[isobenzofuran-1,4′-piperidine]-3-one] | 6.47 µM |
| O=C(N1CCc2cc(S(=O)(=O)N3CCC4(C=Cc5ncccc54)CC3)ccc2C1)C(F)(F)F [1-(N-trifluoromethylcarbonyl-1,2,3,4-tetrahydroisoquinolin-6-yl-sulfonyl)-spiro[piperidine-4,5′-cyclopenta[b]pyridine]] | 5.61 µM |
| O=C1OC2(CCN(C(=O)CC(=O)N(c3ccc(F)cc3)c3ccc(F)cc3)CC2)c2ccccc21 [Compound 75, 1,3-Dihydro-1′-{2-[N,N,-bis(4-fluorophenyl)aminocarbonyl]ethan-1-oyl}-spiro[isobenzofuran-1,4′-piperidine]-3-one] | 5.79 µM |
| COc1ccc(CN2CCC3(C=Cc4ncccc43)CC2)cc1C(F)(F)F [1-(4-methoxy-3-trifluoromethylbenzyl)-spiro[piperidine-4,5′-cyclopenta[b]pyridine]] | 10 to 20 µM |
| O=C(CCC(c1ccc(F)cc1)c1ccc(F)cc1)N1CCC2(C=Cc3ccccc32)CC1 [Compound 34, 1-[4,4-bis(4-fluorophenyl)butanoyl]-spiro[piperidine-4,1′-indene]] | 10 to 20 µM |
